Source: patent US20240189442A1, “TARGETING CONJUGATES WITH THERAPEUTIC AGENTS AND OLIGONUCLEOTIDES AND USES THEREOF” (Allygen Group, priority 2021, published 2024)
Non-standard residues stand in square brackets, D forms with d. Primed or numbered codes have the meaning given here. No end group written: not given here. PEG12′ = NH2-(PEG)12 moiety

Tests used:
[1] = Stability of SN-38 (lactone / ring-opened form) at different pH; type: physicochemical
Procedure: A hydrochloric acid solution with a pH of 4 and a sodium hydroxide solution with a pH of 10 were prepared respectively. 5 mg of SN-38 was dissolved in 5 mL of acetonitrile. The stability of SN-38 in a solution of changing pH (pH=10 to pH=4) was measured by shaking SN-38 at room temperature under pH=10 for 10 min, then adjusting the pH back to 4 and shake at room temperature for 10 min before sampling. SN-38 was then incubated at room temperature overnight (16 h) on a shaker and assayed afterwards.

HCT15-hPDL1 cells = assay: In vitro cytotoxicity study, CellTiter-Glo Luminescent Cell Viability Assay; type: cell-based, Human; details: 5 days exposure
Procedure: The cell line was named as HCT15-hPDL1. Cells were cultured at 37° C. with 5% C02 using RPMI1640 medium supplemented with 10% FBS, plus 1 μg/ml of puromycin.
The in vitro anti-tumor activity was determined by CellTiter-Glo® Luminescent Cell Viability Assay (Promega) according to the manufacturer's instructions. Briefly, cells were seeded into 96-well plates at 2×10^3 cells per well in 100 μL complete medium, then incubated at 37° C. with 5% CO2 overnight. Untreated cells served as control. ADCs, antibodies, or payloads in 100 μL medium were added in duplicate at various concentrations with a 2-fold dilution series starting with concentrations of 1 uM, respectively. Cells were exposed to test articles for 5 days. […]. The cell survival rate (%) was calculated using the following formula: sample/control×100%.

[2] = target: Tissue-type Plasminogen Activator (tPA) (Homo sapiens, UniProt P00750); assay: tPA digestion of substrate peptides measured by FRET; type: biochemical
Sequence of Tissue-type Plasminogen Activator (tPA) (P00750 36-562, species assumed): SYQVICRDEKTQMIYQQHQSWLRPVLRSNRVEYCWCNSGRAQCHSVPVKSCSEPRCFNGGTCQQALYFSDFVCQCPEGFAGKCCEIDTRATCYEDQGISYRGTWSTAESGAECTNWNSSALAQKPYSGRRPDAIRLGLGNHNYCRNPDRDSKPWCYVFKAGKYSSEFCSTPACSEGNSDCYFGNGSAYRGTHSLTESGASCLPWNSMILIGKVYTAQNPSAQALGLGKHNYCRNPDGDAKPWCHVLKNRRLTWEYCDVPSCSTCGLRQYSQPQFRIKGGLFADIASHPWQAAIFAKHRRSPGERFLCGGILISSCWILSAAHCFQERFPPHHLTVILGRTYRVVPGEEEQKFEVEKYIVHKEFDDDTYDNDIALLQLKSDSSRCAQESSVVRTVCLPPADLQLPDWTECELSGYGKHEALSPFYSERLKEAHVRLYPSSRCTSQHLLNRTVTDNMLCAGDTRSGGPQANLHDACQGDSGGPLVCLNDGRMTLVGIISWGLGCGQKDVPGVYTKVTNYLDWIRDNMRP
Procedure: (§1) All peptide solutions were finally diluted to 50 μL with 20 mM PBS at pH=7.4.

[3] = target: Urokinase-type Plasminogen Activator (uPA) (Homo sapiens, UniProt P00749); assay: uPA cleavage of substrate peptides measured by FRET; type: biochemical; details: uPA 7.5 × 10^−3 mg/mL, peptide 0.5 mg/mL, PBS pH=7.4
Procedure: as §1

antibody Ab2B = assay: Biacore affinities between TBP and antibody; type: binding
Sequence of antibody Ab2B (as listed by the source): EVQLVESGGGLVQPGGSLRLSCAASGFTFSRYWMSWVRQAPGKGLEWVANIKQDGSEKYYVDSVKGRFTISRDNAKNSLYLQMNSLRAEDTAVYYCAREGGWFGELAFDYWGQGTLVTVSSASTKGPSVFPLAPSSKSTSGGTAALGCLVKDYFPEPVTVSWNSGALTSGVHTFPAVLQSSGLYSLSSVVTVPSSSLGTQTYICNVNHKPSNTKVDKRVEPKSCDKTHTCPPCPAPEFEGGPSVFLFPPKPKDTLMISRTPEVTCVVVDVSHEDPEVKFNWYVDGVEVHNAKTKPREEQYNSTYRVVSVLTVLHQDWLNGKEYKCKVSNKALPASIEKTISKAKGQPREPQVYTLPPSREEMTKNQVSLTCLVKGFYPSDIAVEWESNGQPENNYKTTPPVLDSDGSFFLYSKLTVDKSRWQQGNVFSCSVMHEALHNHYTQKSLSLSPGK
Sequence of antibody Ab2B (as listed by the source partner): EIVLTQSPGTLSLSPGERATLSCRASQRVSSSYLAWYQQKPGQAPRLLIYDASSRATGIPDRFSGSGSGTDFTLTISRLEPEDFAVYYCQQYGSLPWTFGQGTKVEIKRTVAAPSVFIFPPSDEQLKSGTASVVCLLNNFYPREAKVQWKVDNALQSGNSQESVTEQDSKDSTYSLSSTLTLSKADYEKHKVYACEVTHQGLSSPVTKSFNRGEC
Procedure: Anti-human Fab was ligated to Biacore chips at pH 4.5. […] TBPs were flowed through the chip as analytes at 30 μL/min. 10 mM glycine at pH 1.5 was used for regeneration of the chip. Conditions were optimized as needed.

[4] = target: T1, TLR9 (HEK-Blue hTLR9-hPDL1 cells) (Homo sapiens, UniProt Q9NR96); assay: In vitro TLR9 activation study, SEAP reporter; type: cell-based; details: 18 hr incubation, OD 655 nm; read-out: HEK-Blue hTLR9-hPDL1 cell EC50
T1 construct: expressed in transfected cells; host or cells: HEK-Blue hTLR9-hPDL1 (HEK-Blue hTLR9 cells carrying lentiviral human PD-L1, NM_014143)
T1 sequence (Q9NR96 26-1032): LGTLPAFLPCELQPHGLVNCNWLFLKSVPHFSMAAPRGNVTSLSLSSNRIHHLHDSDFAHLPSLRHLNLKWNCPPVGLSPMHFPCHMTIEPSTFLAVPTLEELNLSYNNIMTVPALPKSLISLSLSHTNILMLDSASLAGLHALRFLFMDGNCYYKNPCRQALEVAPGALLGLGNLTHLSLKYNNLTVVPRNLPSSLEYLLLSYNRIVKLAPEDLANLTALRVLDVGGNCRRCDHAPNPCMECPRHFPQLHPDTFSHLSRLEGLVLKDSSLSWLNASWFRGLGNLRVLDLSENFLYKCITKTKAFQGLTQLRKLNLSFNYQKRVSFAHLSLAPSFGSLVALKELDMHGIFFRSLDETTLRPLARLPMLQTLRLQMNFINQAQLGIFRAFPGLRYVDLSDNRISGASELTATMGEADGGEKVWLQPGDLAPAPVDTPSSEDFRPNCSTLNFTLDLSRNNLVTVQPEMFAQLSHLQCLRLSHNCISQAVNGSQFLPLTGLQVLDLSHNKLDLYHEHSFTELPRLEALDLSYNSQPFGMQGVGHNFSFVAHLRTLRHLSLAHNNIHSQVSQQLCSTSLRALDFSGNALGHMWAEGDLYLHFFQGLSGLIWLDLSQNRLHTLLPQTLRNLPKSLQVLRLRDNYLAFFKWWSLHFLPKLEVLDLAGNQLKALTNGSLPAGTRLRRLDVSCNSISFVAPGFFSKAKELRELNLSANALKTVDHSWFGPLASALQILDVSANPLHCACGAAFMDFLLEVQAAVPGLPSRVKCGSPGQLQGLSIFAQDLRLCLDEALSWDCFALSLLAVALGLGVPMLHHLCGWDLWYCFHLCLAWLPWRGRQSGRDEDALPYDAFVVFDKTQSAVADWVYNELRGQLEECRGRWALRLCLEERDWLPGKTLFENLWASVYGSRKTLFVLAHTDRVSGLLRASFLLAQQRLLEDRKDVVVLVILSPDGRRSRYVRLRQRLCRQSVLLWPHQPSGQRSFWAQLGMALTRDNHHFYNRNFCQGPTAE
Description: Data were normalized with untreated cells as zero.

[5] = Stability of Compound of Formula (1) and (2) in plasma; type: in vitro ADME; details: pH 7.4, 0.5 mg/mL
Procedure: Preparation of protein precipitation solution: 1 g NaCl was added to 3 mL methanol and 5 mL acetonitrile, stirred for 1 h, and then allowed to stand at room temperature for 1 h before use.
200 μL protein precipitation solution was then added to the reaction solution and centrifuged at 8000 g for 10 min. The supernatant was collected for analysis.

[6] = Stability of Compound of Formula (1) and (2) in buffer; type: physicochemical
Procedure: Preparation of 20 mM phosphate buffer with pH=7.4 (in 1 L): 8.0 g sodium chloride, 0.2 g potassium chloride, 7.3 g disodium hydrogen phosphate dodecahydrate, and 0.48 g potassium dihydrogen phosphate was dissolved in water and dilute to 1 L at pH 7.4.
The buffer was adjusted to pH 9.0, 7.0 and 5.0 with saturated phosphoric acid solution and sodium hydroxide solution. […] The solution pH was adjusted back to 5, and shaken overnight at room temperature (16 h) before testing.

CathepsinB = CathepsinB (Homo sapiens, UniProt P07858); assay: Digestion of the drug-linkers by CathepsinB; type: biochemical; details: 125 nM enzyme, 62.5 μM drug-linker, pH 5.5, 37° C., 3 hours
Procedure: To simulate the release of drug under physiological conditions, the drug-linkers were subjected to cleavage by CathepsinB, after which an elimination reaction occurred and unmodified drug was released.
Lyophilized CathepsinB enzyme powder was dissolved in 130 μL of pure water, and divided into 13 tubes of 10 μL each. At this time, the concentration of each tube was 0.15 mg/ml (4.15 μM). Activation buffer (20 mM sodium acetate, 30 mM DTT, 15 mM EDTA, pH 5.5) was then added to a tube of enzyme to activate the enzyme for 1 hour at room temperature. The activated enzyme was diluted to 125 nM with enzyme digestion buffer (25 mM sodium acetate, 1 mM EDTA, pH 5.5). Drug-linkers were added to the activated enzyme to a final concentration of 62.5 μM, and incubated at 37° C. for 3 hours.

[7] = alkaline conditions for 10 minutes, then acidic conditions before testing
[8] = pH 10 to pH 4, after incubation overnight (16 h)

For `CCc1c2c(nc3ccc(O)cc13)-c1cc3c(c(=O)n1C2)COC(=O)[C@]3(O)CC` [SN38, 7-ethyl-10-hydroxy-20(S)-camptothecin], the Present as lactone ([1]; acidic conditions (pH 4)) was 94%, the “Present as lactone ring-opened form” value ([1]; alkaline conditions (pH 10)) was 92% and the Lactone ring-opening products [1, 7] was 42%. The “Present in the form of lactone” value [1, 7] was 56%, the Lactone ring-opening products [1, 8] was 13% and the “Present in the form of lactone” value [1, 8] was 86%. The IC50 (HCT15-hPDL1 cells; Homo sapiens, 120 h) was 11.2 nM.

In the case of SGRSA [SEQ ID NO: 51], the “tPA digestion (in words)” value ([2]; tPA 7.5×10^−3 mg/mL) is reported as “mildly digested”, the “tPA digestion (in words)” value ([2]; tPA […]10^−2 mg/mL) is reported as “digested” and the “Fluorescence Intensity Time to Reach Plateau” value (shortened to “Fluorescence Intensity Time”) [3] is reported as 1.8 h.

For “SEQ ID NO: 151 ([PEG12′]RSQSRSRYYRQRQRSRRRRRRS)”, the “Binding to Ab2B (in words)” value (antibody Ab2B) was “did not bind to Ab2B”.

“CpGB: CpG ODN CpGB, used as positive control and as component of Ab3A ADOC (DNA TCGAACGTTCGAACGTTCGAACGTTCGAAT; DNA, all phosphorothioate, methylation of C not given here)” showed an EC50 [4] of 11500 nM.

With “LGGSGRNAQVRLE [SEQ ID NO: 53, uPA substrate peptide]” the “Fluorescence Intensity Time” value [3] was 1.6 h.

For “Glycine3-amido-PEG8-VC-PAB-DMAE-phenol linked SN38 [Compound of Formula (1)]”, the “Stability in plasma (in words)” value [5] was “partially hydrolyzed in plasma”, the “Present in the form of lactones” value ([6]; acidic conditions (pH 5 buffer)) was 88% and the “Present as lactones in the form of ring opening” value ([6]; alkaline conditions (pH 9 buffer)) was 92%. The “Present in the form of lactones” value ([6]; alkaline conditions for 10 minutes, then acidic conditions (pH 9 to 5)) was 98%, the IC50 (HCT15-hPDL1 cells) was greater than 300 nM and the “CathepsinB digestion (in words)” value (CathepsinB) was “effectively digested”. The “Product released on CathepsinB digestion” value (CathepsinB) was “release SN38”.

With `CCc1c2c(nc3ccc(O)cc13)-c1cc3c(c(=O)n1C2)COC(=O)[C@@]3(CC)OC(=O)N(C)CCN(C)C(=O)OCc1ccc(NC(=O)[C@H](CCCNC(N)=O)NC(=O)[C@@H](NC(=O)CCOCCOCCOCCOCCOCCOCCOCCOCCCNC(=O)CNC(=O)CNC(=O)CN)C(C)C)cc1` [Compound of Formula (2), Glycine3-amido-PEG8-VC-PAB-DMAE-α-hydroxy lactone linked SN38] the “Stability in plasma (in words)” value [5] was “mainly in the form of lactones in the plasma”, the “Present in the form of lactones in buffer” value ([6]; buffer, less affected by pH) was 98% and the IC50 (HCT15-hPDL1 cells; Homo sapiens, 120 h) was 38.1 nM. For the same compound, the “CathepsinB digestion (in words)” value (CathepsinB) was “effectively digested” and the “Product released on CathepsinB digestion” value (CathepsinB) was “release SN38 derivatives”.

In the case of “LGGSGRSANAILE [SEQ ID NO: 52, uPA substrate peptide]”, the “tPA digestion (in words)” value ([2]; tPA 7.5×10^−3 mg/mL) is reported as “mildly digested”, the “tPA digestion (in words)” value ([2]; tPA […]10^−2 mg/mL) is reported as “digested” and the “Fluorescence Intensity Time” value [3] is reported as 1.4 h.

In the case of LSGRSDNH [SEQ ID NO: 50], the “Fluorescence Intensity Time” value [3] is reported as 1.7 h.

For “GSGRNAQV [SEQ ID NO: 54, uPA substrate peptide]”, the “tPA digestion (in words)” value ([2]; tPA […]10^−2 mg/mL) was “digested” and the “Fluorescence Intensity Time” value [3] was 1.4 h.
